Measurements taken from patent US20210053957A1, “HERBICIDAL COMPOUNDS” (SYNGENTA PARTICIPATIONS AG, priority 2018, published 2021).

Key:
Assay in all cases: Post-emergence efficacy, glasshouse spray test
Format in all cases: in vivo
Setaia fabei (SETFA) = conditions: Setaria faberi, post-emergence, 312 h; Application Rate 500 g/Ha; evaluated after 13 days; read-out: Control of weed species after post-emergence application, SETFA (100=total damage to plant; 0=no damage to plant)
Summary of the method: (§1)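 Visual damage rating (0 = no damage, 100 = total damage) taken 13 days after a post-emergence spray. Plants had grown 14 days in pots under 24/16° C, 14 h light, 65% humidity before treatment.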

[1] = system: Amaranthus palmeri (AMAPA); conditions: Amaranthus palmeri, post-emergence, 312 h; Application Rate 500 g/Ha; evaluated after 13 days; read-out: Control of weed species after post-emergence application, AMAPA (100=total damage to plant; 0=no damage to plant)
Summary of the method: as §1

Lolium perenne (LOLPE) = conditions: Lolium perenne, post-emergence, 312 h; Application Rate 500 g/Ha; evaluated after 13 days; read-out: Control of weed species after post-emergence application, LOLPE (100=total damage to plant; 0=no damage to plant)
Summary of the method: as §1

[2] = system: Digitaria sanguinalis (DIGSA); conditions: Digitaria sanguinalis, post-emergence, 312 h; Application Rate 500 g/Ha; evaluated after 13 days; read-out: Control of weed species after post-emergence application, DIGSA (100=total damage to plant; 0=no damage to plant)
Summary of the method: as §1

[3] = system: Euphorbia heterophylla (EPHHL); conditions: Euphorbia heterophylla, post-emergence, 312 h; Application Rate 500 g/Ha; evaluated after 13 days; read-out: Control of weed species after post-emergence application, EPHHL (100=total damage to plant; 0=no damage to plant)
Summary of the method: as §1

[4] = system: Ipomoea hederacea (IPOHE); conditions: Ipomoea hederacea, post-emergence, 312 h; Application Rate 500 g/Ha; evaluated after 13 days; read-out: Control of weed species after post-emergence application, IPOHE (100=total damage to plant; 0=no damage to plant)
Summary of the method: as §1

Eleusine indica (ELEIN) = conditions: Eleusine indica, post-emergence, 312 h; Application Rate 500 g/Ha; evaluated after 13 days; read-out: Control of weed species after post-emergence application, ELEIN (100=total damage to plant; 0=no damage to plant)
Summary of the method: as §1

[5] = system: Chenopodium album (CHEAL); conditions: Chenopodium album, post-emergence, 312 h; Application Rate 500 g/Ha; evaluated after 13 days; read-out: Control of weed species after post-emergence application, CHEAL (100=total damage to plant; 0=no damage to plant)
Summary of the method: as §1

[6] = system: Echinochloa crus-galli (ECHCG); conditions: Echinochloa crus-galli, post-emergence, 312 h; Application Rate 500 g/Ha; evaluated after 13 days; read-out: Control of weed species after post-emergence application, ECHCG (100=total damage to plant; 0=no damage to plant)
Summary of the method: as §1

Structure (SMILES) | pest or weed control at 500 g/ha (Setaia fabei (SETFA)) [%] | pest or weed control at 500 g/ha [1] [%] | pest or weed control at 500 g/ha (Lolium perenne (LOLPE)) [%] | pest or weed control at 500 g/ha [2] [%] | pest or weed control at 500 g/ha [3] [%] | pest or weed control at 500 g/ha [4] [%] | pest or weed control at 500 g/ha (Eleusine indica (ELEIN)) [%] | pest or weed control at 500 g/ha [5] [%] | pest or weed control at 500 g/ha [6] [%]
CC(CNS(=O)(=O)[O-])[n+]1ccc(-c2ncco2)cn1 (stereo not drawn) [Compound A83] | 60 | 100 | 50 | 60 | 70 | 40 | 70 | 70 | 60
O=S(=O)([O-])CC(O)C[n+]1ccc(-c2ncco2)cn1 (stereo not drawn) [Compound A84] | 50 | 100 | 50 | 70 | 90 | 40 | 70 | 90 | 70
CCOP(=O)(O)CC[n+]1ccc(-c2ncco2)cn1 [Compound A85] | 20 | 10 | 10 | 40 | 20 | 30 | 30 | 0 | 20
COP(=O)(O)CCC[n+]1ccc(-c2ncco2)cn1 [Compound A86] | 20 | 40 | 20 | 30 | 30 | 40 | 20 | 30 | 10
COC(=O)C[n+]1ccc(-c2ncn(C)n2)cn1 [Compound A87] | 40 | 80 | 0 | 90 | 80 | 10 | 80 | 20 | 50
CC(C[n+]1ccc(-c2ncco2)cn1)C(=O)O (stereo not drawn) [Compound A88] | 60 | 100 | 30 | 70 | 50 | 30 | 30 | 100 | 80
CC(C[n+]1ccc(-c2ncco2)cn1)NS(=O)(=O)[O-] (stereo not drawn) [Compound A89] | 60 | 100 | 60 | 90 | 100 | 30 | 70 | 90 | 60
CC(C(=O)O)[n+]1ccc(-c2ncco2)cn1 (stereo not drawn) [Compound A90] | 10 | 20 | 0 | 10 | 20 | 10 | 10 | 20 | 10
COC(=O)c1cccc(C[n+]2ccc(-c3ncco3)cn2)c1 [Compound A92] | 0 | 10 | 0 | 20 | 20 | 10 | 10 | 10 | 0
